This is an account of results in US20240009174A1, “METHODS FOR DISRUPTING MITOCHONDRIAL UNFOLDED PROTEIN RESPONSE” (Health Research, Inc., priority 2020, published 2024).

For assay [1], the system named is LNCaP and PC-3 cells. The assay is described as follows: Mitochondrial membrane potential (mitoMP). Format: cell-based. The protocol: FIG. 7. Pharmacological inhibition of HSP60-ClpP interaction induces metabolic stress in PCa cells. (A) LNCaP and PC-3 cells were pre-treated with either rotenone or antimycin-A followed by DCEM1 treatment and mitochondrial ROS was analyzed as described in material and methods (data represented as fold change compared to control). In (A), the bars in each series from left to right are control, DCEM1, Rot+DCEM1, Anti A+DCEM1, Rot, and Anti A (B) ClpP protein was over-expressed in LNCaP and PC-3 cells followed by DCEM1 treatment and mitochondrial ROS was analyzed as described in material and methods (Data represented as fold change compared to control). […] (C) ClpP protein was over-expressed in LNCaP and PC-3 cells followed by DCEM1 treatment and level of poly-ubiquitinated protein was analyzed by western blotting. (D) ClpP protein was over-expressed in LNCaP and PC-3 cells followed by DCEM1 treatment and DEVDase activity was analyzed as described in material and methods (Data represented as fold change compared to control). […] (E) Mitochondrial membrane potential (mitoMP) was analyzed in LNCaP and PC-3 cells treated with DCEM1 as described in material and methods (Data represented as fold change compared to control). […] (F) ATP level was analyzed in LNCaP and PC-3 cells treated with DCEM1 as described in material and methods (Data represented as fold change compared to control). […]

The test system of assay [2] is c-Myc, EZH2, AR, PSA. Description: c-Myc, EZH2, AR and PSA protein expression in PCa cells. Format: cell-based. The note with it: LNCaP, 24 hours. The protocol: FIG. 8. Pharmacological inhibition of HSP60-ClpP inhibit oncogenic signaling and PCa tumor growth in vivo. (A) LNCaP, PC-3 and 22RV1 cells were treated with DCEM1 and analyzed for c-Myc and EZH2 protein expression after 24 hours of treatment. (B) LNCaP, 22RV1 and VCaP cells were treated with DCEM1 and analyzed for AR and PSA protein expression after 24 hours of treatment. (C-D) 22RV1 cells (1×10^6 cells) were mixed with matrigel (50:50 v/v) and injected into each flank of SCID mice and treated with DCEM1 (60 mg/kg bw) through IP route twice weekly and tumors were harvested, photographed (C) and weighed (D) at 30 days. (E) DEVDase activity were analyzed in 22RV1 xenograft tumor tissue following DCEM1 treatment and represented as fold change compared to control. (F) 22RV1 xenograft tissue were sectioned and expression of ki67, c-Myc and EZH2 proteins were analyzed by Immunohistochemistry as described in material and methods. […] (I) DEVDase activity were analyzed in PC-3 xenograft tumor tissue following DCEM1 treatment and represented as fold change compared to control. […] All animals were sacrificed at 16 weeks of age and prostate tissue and tumors were harvested, whole cell lysate were prepared and analyzed for HSP60 and ClpP expression (N); c-Myc and EZH2 expression (0) and SYP and CK 8/18 expression (P) by immunoblotting. […]

For the compound `CCOc1cc(CNCc2nc3ccccc3[nH]2)ccc1OCc1cccs1` [DCEM1], in assay [1], the mitochondrial membrane potential entry is “robustly depolarized mitochondrial membrane”. In addition, in assay [2] (22RV1 and VCaP cells), the PSA levels entry was “Decrease in PSA levels”. The “c-Myc, EZH2, and AR signaling in PCa cells” value in assay [2] (PC-3, 22RV1, VCaP cells) is “downregulates c-Myc, EZH2, and AR signaling”.
